Experimental findings from patent US11826402B2, “Combination therapy involving antibodies against claudin 18.2 for treatment of metastatic pancreatic adenocarcinoma” (Astellas Pharma Inc., priority 2013, dated 2023) are described below.

Common to all, as to type: cell-based, human
The test system of experiment [1] is Kato III cells. Kind of experiment: Kato III cells pretreated with cytostatic compounds: cell growth, viable cells, CLDN18.2 expression. Particulars: for claudin18.2 expression versus medium cultivated cells / level of viable cells versus medium cultivated cells: Kato III pretreated 3 days, Irinotecan 1000 ng/ml, Docetaxel 5 ng/ml, Cisplatin 2000 ng/ml; for cell growth: Kato III pretreated for 4 days.

In a further experiment the test system is KATO-III. In words: IMAB362-induced ADCC on gastric cancer cells, also after chemotherapy pretreatment. The following applies: Kato III pretreated 3 days; Irinotecan 1000 ng/ml, Docetaxel 5 ng/ml, Cisplatin 2000 ng/ml. As for the experimental part: Peripheral blood mononuclear cells (PBMCs) including NK cells, monocytes, […] or other effector cells from healthy human donors were purified by Ficoll Hypaque density centrifugation. Washed effector cells were seeded in X-Vivo medium. Kato III cells which express CLDN18.2 endogenously and are of gastric origin were used as target cells in this setting. Target cells stably expressed luciferase, lucifer yellow, which is oxidized by viable cells only.

The test system of experiment [2] is Kato III cells. Kind of experiment: Cell cycle analysis of gastric cancer cells with cytostatic compounds. How it is done: Kato III cells, a human gastric tumor cell line, was cultivated in RPMI 1640 medium (Invitrogen) containing 20% FCS (Perbio) and 2 mM Glutamax (Invitrogen) at 37° C. and 5% CO2, with or without cytostatic compounds. 5-FU (Neofluor from NeoCorp AG) was tested at a concentration of 10 or 100 ng/ml, and oxaliplatin (Hospira) was tested at a concentration of 50 or 500 ng/ml. […] Cells were harvested with EDTA/trypsin, washed and analysed.
Cell cycle stages were determined based on measurement of cellular DNA content. This allows one to discriminate between cells in the G1-, S- or G2-phase of the cell cycle. In the S-phase DNA duplication occurs whereas in the G2-phase cells grow and prepare for mitosis. Cell cycle analysis was done using the CycleTEST PLUS DNA Reagent Kit from BD Biosciences following the manufacturer's protocol. Flow cytometry acquisition and analysis were performed by using BD FACS CantoII (BD Biosciences) and FlowJo (Tree Star) software.
Kato III cells were pretreated for 4 days with Irinotecan or Docetaxel and analysed for CLDN18.2 expression and cell cycle arrest.

For another experiment, the system named is MiaPaCa-2-LVT. Kind of experiment: Inhibition of proliferation (XTT viability assay, 4 days). As for the experimental part:
To analyze dose-response curves of each chemotherapeutic agent, a proliferation assay was performed.
Cells were seeded in 96 well plates and after 4-6 hours gemcitabine or oxaliplatin was added in following concentrations: 1000, 500, 250, 100 and 20 ng/ml. The proliferation assay was incubated for 4 days at 37° C. and 5% CO2. 50 μl XTT complete reagent (50 parts XTT+1 part coupl. reagent mixed) was added and incubated at 37° C. Measurement of absorbance (cells plus supernatant) was done with the Tecan Safire after 3 h and 4 h. Inhibition of proliferation was calculated compared to medium values set as 100%. EC50 values for gemcitabine and oxaliplatin were calculated in the GraphPad Prism program.

As to `N.N.[Cl][Pt][Cl]` [Cisplatin, cis-diaminedichloroplatinum(II)], in the experiment with Kato III cells [1], the “claudin18.2 expression versus medium cultivated cells” value is “increased” and the “level of viable cells versus medium cultivated cells” value is given as “lower level of viable cells”. For the same compound, the “effect of pretreatment on IMAB362 induced ADCC” value (from here on “effect of pretreatment”) in the experiment with KATO-III is given as “augments the potency of IMAB362 to induce ADCC”.
As for `CC(=O)O[C@@]12CO[C@@H]1C[C@H](O)[C@@]1(C)C(=O)[C@H](O)C3=C(C)[C@@H](OC(=O)[C@H](O)[C@@H](NC(=O)OC(C)(C)C)c4ccccc4)C[C@@](O)([C@@H](OC(=O)c4ccccc4)[C@H]21)C3(C)C` [Docetaxel, 1,7β,10β-trihydroxy-9-oxo-5β,20-epoxytax-11-ene-2α,4,13α-triyl 4-acetate 2-benzoate 13-{(2R,3S)-3-[(tert-butoxycarbonyl)-amino]-2-hydroxy-3-phenylpropanoate}], in the experiment with Kato III cells [2], the cell cycle effect result is given as “cell cycle arrest in the G2-phase”. For the same compound, in the experiment on Kato III cells [1], the “claudin18.2 expression versus medium cultivated cells” value is “increased”, the “level of viable cells versus medium cultivated cells” value is listed as “lower level of viable cells” and the cell growth result is recorded as “dose dependent inhibition of cell growth”. Besides, the “effect of pretreatment” value with KATO-III is “augments the potency of IMAB362 to induce ADCC”.
Consider `O=c1[nH]cc(F)c(=O)[nH]1` [5-FU, 5-fluoro-1H-pyrimidine-2,4-dione], for which the cell cycle effect result in the experiment on Kato III cells [2] is “blocked predominantly in the S-phase”.
Regarding `O=C1[O][Pt]2([NH][C@@H]3CCCC[C@H]3[NH]2)[O]C1=O` [oxaliplatin, [(1R,2R)-cyclohexane-1,2-diamine](ethanedioato-O,O′)platinum(II)], in the experiment with MiaPaCa-2-LVT, the “sensitivity of cells to the agent” value is “most sensitive”.
Regarding `CCc1c2c(nc3ccc(OC(=O)N4CCC(N5CCCCC5)CC4)cc13)-c1cc3c(c(=O)n1C2)COC(=O)[C@]3(O)CC` [Irinotecan, (S)-4,11-diethyl-3,4,12,14-tetrahydro-4-hydroxy-3,14-dioxo1H-pyrano[3′,4′:6,7]-indolizino[1,2-b]quinolin-9-yl-[1,4′-bipiperidine]-1′-carboxylate], in the experiment with Kato III cells [2], the cell cycle effect result is “cell cycle arrest in the S/G2-phase”. In the experiment with Kato III cells [1], the “claudin18.2 expression versus medium cultivated cells” value is given as “increased”, the “level of viable cells versus medium cultivated cells” value is reported as “lower level of viable cells” and the cell growth entry is “dose dependent inhibition of cell growth”. The “effect of pretreatment” value in the experiment with KATO-III is on record as “augments the potency of IMAB362 to induce ADCC”.
